Laboratory results reported in the NIST ThermoML archive (doi:10.1007/s10765-011-0995-x).
Numbers after ± are expanded uncertainties.

Columns and labels:
[1] = refractive index (Na D-line) (dimensionless); conditions: 101.33 kPa, Liquid, Standard Abbe refractometry
[2] = 101 kPa, Liquid; for speed of sound: Pulse-echo method
[3] = xn = mol fraction of the nth substance listed; conditions: 101 kPa, Liquid, x2 = 0; for speed of sound: Pulse-echo method
[4] = refractive index (Na D-line) (dimensionless); xn = mol fraction of the nth substance listed; conditions: 101 kPa, Liquid, Standard Abbe refractometry, x2 = 0

Cc1ccccc1Cl [2-chlorotoluene]
refractive index ([1]; 298.15 K): 1.5219 ± 0.0005 | refractive index ([1]; 303.15 K): 1.5189 ± 0.0005 | refractive index ([1]; 308.15 K): 1.5169 ± 0.0005 | mass density ([2]; 298.15 K): 1077.41 ± 0.3 kg/m3 | viscosity ([2]; 298.15 K): 0.943 ± 0.013 mPa·s | speed of sound ([2]; 298.15 K): 1301.2 ± 1.3 m/s | mass density ([2]; 303.15 K): 1072.83 ± 0.3 kg/m3 | viscosity ([2]; 303.15 K): 0.885 ± 0.012 mPa·s | speed of sound ([2]; 303.15 K): 1284.1 ± 1.3 m/s | mass density ([2]; 308.15 K): 1068.24 ± 0.29 kg/m3 | viscosity ([2]; 308.15 K): 0.805 ± 0.011 mPa·s | speed of sound ([2]; 308.15 K): 1266.1 ± 1.3 m/s

Cc1cccc(Cl)c1 [3-chlorotoluene]
refractive index ([1]; 298.15 K): 1.5207 ± 0.0005 | refractive index ([1]; 303.15 K): 1.5189 ± 0.0005 | refractive index ([1]; 308.15 K): 1.5169 ± 0.0005 | mass density ([2]; 298.15 K): 1067.29 ± 0.29 kg/m3 | viscosity ([2]; 298.15 K): 0.798 ± 0.011 mPa·s | speed of sound ([2]; 298.15 K): 1298.3 ± 1.3 m/s | mass density ([2]; 303.15 K): 1062.81 ± 0.28 kg/m3 | viscosity ([2]; 303.15 K): 0.746 ± 0.011 mPa·s | speed of sound ([2]; 303.15 K): 1280.1 ± 1.3 m/s | mass density ([2]; 308.15 K): 1058.33 ± 0.27 kg/m3 | viscosity ([2]; 308.15 K): 0.705 ± 0.01 mPa·s | speed of sound ([2]; 308.15 K): 1262.1 ± 1.3 m/s

Cc1ccc(Cl)cc1 [4-chlorotoluene]
refractive index ([1]; 298.15 K): 1.5188 ± 0.0005 | refractive index ([1]; 303.15 K): 1.5166 ± 0.0005 | refractive index ([1]; 308.15 K): 1.5138 ± 0.0005 | mass density ([2]; 298.15 K): 1065.11 ± 0.27 kg/m3 | viscosity ([2]; 298.15 K): 0.828 ± 0.011 mPa·s | speed of sound ([2]; 298.15 K): 1289.1 ± 1.2 m/s | mass density ([2]; 303.15 K): 1059.51 ± 0.26 kg/m3 | viscosity ([2]; 303.15 K): 0.784 ± 0.011 mPa·s | speed of sound ([2]; 303.15 K): 1271 ± 1.2 m/s | mass density ([2]; 308.15 K): 1053.9 ± 0.25 kg/m3 | viscosity ([2]; 308.15 K): 0.73 ± 0.011 mPa·s | speed of sound ([2]; 308.15 K): 1253.1 ± 1.2 m/s

CCCCCCCCCCO [decan-1-ol]
refractive index ([1]; 298.15 K): 1.4346 ± 0.0005 | refractive index ([1]; 303.15 K): 1.4326 ± 0.0005 | refractive index ([1]; 308.15 K): 1.4305 ± 0.0005 | mass density ([2]; 298.15 K): 826.41 ± 0.43 kg/m3 | viscosity ([2]; 298.15 K): 11.82 ± 0.11 mPa·s | speed of sound ([2]; 298.15 K): 1380.1 ± 1.3 m/s | mass density ([2]; 303.15 K): 822.92 ± 0.44 kg/m3 | viscosity ([2]; 303.15 K): 9.766 ± 0.095 mPa·s | speed of sound ([2]; 303.15 K): 1364.9 ± 1.3 m/s | mass density ([2]; 308.15 K): 819.42 ± 0.44 kg/m3 | viscosity ([2]; 308.15 K): 8.13 ± 0.081 mPa·s | speed of sound ([2]; 308.15 K): 1346 ± 1.3 m/s

CCCCCCCCCCO [decan-1-ol] + Cc1ccc(Cl)cc1
speed of sound ([3]; 298.15 K): 1380.1 ± 1.3 m/s | mass density ([3]; 298.15 K): 826.41 ± 0.43 kg/m3 | viscosity ([3]; 298.15 K): 11.82 ± 0.11 mPa·s | speed of sound ([3]; 303.15 K): 1364.9 ± 1.3 m/s | mass density ([3]; 303.15 K): 822.92 ± 0.44 kg/m3 | viscosity ([3]; 303.15 K): 9.766 ± 0.095 mPa·s | speed of sound ([3]; 308.15 K): 1346 ± 1.3 m/s | mass density ([3]; 308.15 K): 819.42 ± 0.44 kg/m3 | viscosity ([3]; 308.15 K): 8.13 ± 0.081 mPa·s | refractive index ([4]; 298.15 K): 1.4346 ± 0.0005 | refractive index ([4]; 303.15 K): 1.4326 ± 0.0005 | refractive index ([4]; 308.15 K): 1.4305 ± 0.0005

CCCCCCCCCCO [decan-1-ol] + Cc1cccc(Cl)c1
speed of sound ([3]; 298.15 K): 1380.1 ± 1.3 m/s | mass density ([3]; 298.15 K): 826.41 ± 0.43 kg/m3 | viscosity ([3]; 298.15 K): 11.82 ± 0.11 mPa·s | speed of sound ([3]; 303.15 K): 1364.9 ± 1.3 m/s | mass density ([3]; 303.15 K): 822.92 ± 0.44 kg/m3 | viscosity ([3]; 303.15 K): 9.766 ± 0.095 mPa·s | speed of sound ([3]; 308.15 K): 1346 ± 1.3 m/s | mass density ([3]; 308.15 K): 819.42 ± 0.44 kg/m3 | viscosity ([3]; 308.15 K): 8.13 ± 0.081 mPa·s | refractive index ([4]; 298.15 K): 1.4346 ± 0.0005 | refractive index ([4]; 303.15 K): 1.4326 ± 0.0005 | refractive index ([4]; 308.15 K): 1.4305 ± 0.0005

CCCCCCCCCCO [decan-1-ol] + Cc1ccccc1Cl
speed of sound ([3]; 298.15 K): 1380.1 ± 1.3 m/s | mass density ([3]; 298.15 K): 826.41 ± 0.43 kg/m3 | viscosity ([3]; 298.15 K): 11.82 ± 0.11 mPa·s | speed of sound ([3]; 303.15 K): 1364.9 ± 1.3 m/s | mass density ([3]; 303.15 K): 822.92 ± 0.44 kg/m3 | viscosity ([3]; 303.15 K): 9.766 ± 0.095 mPa·s | speed of sound ([3]; 308.15 K): 1346 ± 1.3 m/s | mass density ([3]; 308.15 K): 819.42 ± 0.44 kg/m3 | viscosity ([3]; 308.15 K): 8.13 ± 0.081 mPa·s | refractive index ([4]; 298.15 K): 1.4346 ± 0.0005 | refractive index ([4]; 303.15 K): 1.4326 ± 0.0005 | refractive index ([4]; 308.15 K): 1.4305 ± 0.0005
